Measured values taken from patent publication US20180021275A1, “METHOD OF TREATING IDIOPATHIC PULMONARY FIBROSIS” (MediciNova, Inc., priority 2014, published 2018).

What was measured:
Format in all cases: in vivo, C57BL/6 mice
[1] = test system: BLM-induced pulmonary fibrosis model mice; experiment: CT evaluation of lung density in BLM-induced pulmonary fibrosis model mice; conditions: for Lung density on day 0 / Lung density on day 7: CT, mean ± SD; for Lung density on day 0: day 0 (before BLM administration and before treatment); for Lung density on day 7: day 7 after BLM (start of treatment)
Protocol: On day 0, twenty mice were intratracheally administered BLM (Nippon Kayaku, Japan) in 0.9% saline in a volume of 50 μL per animal using a Microsprayer® (Penn-Century, USA). MN-001 and vehicle were administered by oral route in a volume of 10 mL/kg. MN-001 was administered at doses of 30, 100, 300 mg/kg once daily. […] The mice were mounted on a holder and placed in the X-ray CT system (LCT-200, Aloka, Japan) under pentobarbital sodium (Kyoritu Seiyaku, Japan) anesthesia. The images were converted into DICOM format and analyzed with Onis Viewer (DigitalCore, Japan). Two section slides (upper: forth dorsal vertebra, lower: seventh dorsal vertebra) were determined from each scan data set, and eight regions of interest (ROI) were defined in the following areas: the right upper anterior and posterior regions, the left upper anterior and posterior region. The means of the intensity of the eight ROIs were defined as an individual's level of lung density.

[2] = test system: BLM-induced pulmonary fibrosis model mice; experiment: Survival analysis in BLM-induced pulmonary fibrosis model mice
Protocol: (§1) On day 0, twenty mice were intratracheally administered BLM (Nippon Kayaku, Japan) in 0.9% saline in a volume of 50 μL per animal using a Microsprayer® (Penn-Century, USA).
(§2) MN-001 and vehicle were administered by oral route in a volume of 10 mL/kg.
(§3) MN-001 was administered at doses of 30, 100, 300 mg/kg once daily.
(§4) The viability, clinical signs and behavior were monitored every day. Body weight was recorded daily after the day of starting the BLM administration (day 0). Animals were sacrificed by exsanguination through the abdominal aorta under pentobarbital sodium anesthesia (Kyoritsu, Japan).

[3] = Body weight changes in BLM-induced pulmonary fibrosis model mice; conditions: for Body weight changes (%) on the day of sacrifice: percentage of baseline (day 0), mean ± SD
Protocol: Seven-week-old female C57BL/6 mice (17-21 g) were obtained from Japan SLC (Japan). Animals were housed and fed with normal diet (CE-2; CLEA Japan) under conventional conditions. All animals used in this study were cared following appropriate guidelines.
as §1, §2, §3, §4
Body weight was expressed as percentage body weight change from baseline (day 0).

[4] = test system: BLM-induced pulmonary fibrosis in mice; experiment: Bleomycin (BLM)-induced pulmonary fibrosis in mice, therapeutic regimen, overall conclusion; conditions: administered after detecting fibrosis (therapeutic regimen, from day 7 after BLM)
Protocol: As evidenced by Ashcroft score and lung hydroxyproline content, pulmonary fibrosis was established in all BLM-treated mice. […] In the present study, MN-001 was administered at day 7 after BLM administration. Since BLM induced fibrogenic reaction already at day 7, the treatment schedule in the present study is considered to be a “therapeutic regimen”. […] On day 0, twenty mice were intratracheally administered BLM (Nippon Kayaku, Japan) in 0.9% saline in a volume of 50 μL per animal using a Microsprayer® (Penn-Century, USA). MN-001 and vehicle were administered by oral route in a volume of 10 mL/kg. MN-001 was administered at doses of 30, 100, 300 mg/kg once daily.

[5] = test system: BLM-induced pulmonary fibrosis model mice; experiment: CT evaluation of lung density in BLM-induced pulmonary fibrosis model mice; conditions: for Lung density on day 21: CT, mean ± SD
[6] = test system: BLM-induced pulmonary fibrosis model mice; experiment: Histopathological analysis (Masson's trichrome staining, Ashcroft score) in BLM-induced pulmonary fibrosis model mice; conditions: for Ashcroft score: sacrifice day 21, mean ± SD
Protocol: On day 0, twenty mice were intratracheally administered BLM (Nippon Kayaku, Japan) in 0.9% saline in a volume of 50 μL per animal using a Microsprayer® (Penn-Century, USA). MN-001 and vehicle were administered by oral route in a volume of 10 mL/kg. MN-001 was administered at doses of 30, 100, 300 mg/kg once daily. Right lung tissues prefixed in 10% neutral buffered formalin were embedded in paraffin and sectioned at […] sections were stained with Masson's trichrome staining Kit (Sigma, USA) according to the manufacturer's instructions. The degree of pulmonary fibrosis was evaluated using the Ashcroft score (Ashcroft, T., et al., J Clin Pathol, 1988; 41:467-70) for the quantitative histological analysis.

[7] = test system: BLM-induced pulmonary fibrosis model mice; experiment: Cellular analysis of BALF (total cell number) in BLM-induced pulmonary fibrosis model mice; conditions: for Total number of cells in BALF: sacrifice day 21, mean ± SD
Protocol: On day 0, twenty mice were intratracheally administered BLM (Nippon Kayaku, Japan) in 0.9% saline in a volume of 50 μL per animal using a Microsprayer® (Penn-Century, USA). MN-001 and vehicle were administered by oral route in a volume of 10 mL/kg. MN-001 was administered at doses of 30, 100, 300 mg/kg once daily. BALF samples were collected by flushing the lung via the trachea with sterile PBS three times (0.8 mL each). The first lavage was kept separate from the other two. BALF was centrifuged at 1,000×g for 3 minutes at 4° C. and the supernatant was collected and stored at −80° C. until use. The cell pellet from the first fraction and the remaining fractions of lavage fluid were pooled. Total cell number of BALF was counted with a hemocytometer.

[8] = test system: BLM-induced pulmonary fibrosis model mice; experiment: Lung hydroxyproline content in BLM-induced pulmonary fibrosis model mice; conditions: for Lung hydroxyproline contents / Lung Hyp (lung hydroxyproline content): sacrifice day 21, mean ± SD
Protocol: On day 0, twenty mice were intratracheally administered BLM (Nippon Kayaku, Japan) in 0.9% saline in a volume of 50 μL per animal using a Microsprayer® (Penn-Century, USA). MN-001 and vehicle were administered by oral route in a volume of 10 mL/kg. MN-001 was administered at doses of 30, 100, 300 mg/kg once daily. To quantify lung hydroxyproline content, frozen left lung samples (15-25 mg) were processed by an alkaline-acid hydrolysis method as follows. Lung samples were acid-hydrolyzed with 400 μL of 6N HCl at 121° C. for 20 minutes, and neutralized with 400 μL of 4N NaOH containing 10 mg/mL activated carbon. AC buffer (2.2M acetic acid/0.48M citric acid, 400 μL) was added to the samples, followed by centrifugation to collect the supernatant. A standard curve of hydroxyproline was constructed with serial dilutions of trans-4-hydroxy-L-proline (Sigma-Aldrich, USA) starting at 16 μg/mL. The prepared samples and standards (each 400 μL) were mixed with 400 μL chloramine T solution (Wako Pure Chemical Industries Japan) and incubated for 25 minutes at room temperature. The samples were then mixed with Ehrlich's solution (400 μL) and heated at 65° C. for 20 minutes to develop the color. After samples were cooled on ice and centrifuged to remove precipitates, the optical density of each supernatant was measured at 560 nm. The concentrations of hydroxyproline were calculated from the hydroxyproline standard curve. Lung hydroxyproline levels were expressed as […].

[9] = MN-001 30 mg/kg oral once daily day 7 to 20, n = 8, 30 mg/kg
[10] = MN-001 100 mg/kg oral once daily day 7 to 20, n = 10, 100 mg/kg
[11] = MN-001 300 mg/kg oral once daily day 7 to 20, n = 10, 300 mg/kg
[12] = MN-001 30 mg/kg oral once daily day 7 to 20, n = 8
[13] = MN-001 100 mg/kg oral once daily day 7 to 20, n = 10
[14] = MN-001 300 mg/kg oral once daily day 7 to 20, n = 10
[15] = MN-001 treatment, all doses, administered from day 7 after BLM
[16] = MN-001 30 mg/kg oral once daily day 7 to 20
[17] = MN-001 100 mg/kg oral once daily day 7 to 20
[18] = MN-001 300 mg/kg oral once daily day 7 to 20

CCCc1c(SCCCOc2ccc(C(C)=O)c(OCCCC(=O)O)c2CCC)ccc(C(C)=O)c1O [MN-001]
Lung density on day 0 ([1]; MN-001 30 mg/kg group, n = 8): −445 ± 17 | Lung density on day 7 ([1]; MN-001 30 mg/kg group, n = 8): −375 ± 77 | Lung density on day 0 ([1]; MN-001 100 mg/kg group, n = 10): −444 ± 18 | Lung density on day 7 ([1]; MN-001 100 mg/kg group, n = 10): −343 ± 84 | Lung density on day 0 ([1]; MN-001 300 mg/kg group, n = 10): −423 ± 19 | Lung density on day 7 ([1]; MN-001 300 mg/kg group, n = 10): −415 ± 83 | Lung density, visually observed in the graphs (FIGS. 1.1 to 1.3) ([1]; MN-001 treated groups vs Vehicle): downward trend | Mice died before reaching day 21 ([2]; MN-001 30 mg/kg group, during the treatment period (Vehicle: two out of 10)): Two out of 10 | Survival rate compared to the Vehicle group ([2]; MN-001 treated groups (30, 100, 300 mg/kg)): no significant differences | Body weight changes (%) on the day of sacrifice [3, 9]: 104.8±3.7% | Body weight changes (%) on the day of sacrifice [3, 10]: 100.9±10.6% | Body weight changes (%) on the day of sacrifice [3, 11]: 104.2±4.1% | Mean body weight loss on the day of sacrifice compared to the Vehicle group ([3]; MN-001 treated groups (30, 100, 300 mg/kg), Bonferroni multiple comparison test): no significant differences | Anti-fibrogenic effect [4]: significant anti-fibrogenic effect | Lung density on day 21 [5, 12]: −186 ± 84 | Lung density on day 21 [5, 13]: −200 ± 122 | Lung density on day 21 [5, 14]: −260 ± 107 | Lung density on day 0, 7 and 21 compared to the Vehicle group ([5]; any of the MN-001 treated groups, statistical comparison): no significant differences | Ashcroft score [6, 9]: 2.0±0.7 | Ashcroft score compared to the Vehicle group ([6]; MN-001 30 mg/kg treatment): tended to decrease | Ashcroft score [6, 10]: 2.2±0.8 | Ashcroft score compared to the Vehicle group ([6]; MN-001 100 mg/kg treatment): tended to decrease | Ashcroft score compared to the Vehicle group ([6]; MN-001 300 mg/kg group): significantly decreased | Ashcroft score [6, 11]: 1.8±0.6 | Ashcroft score compared to the Vehicle group at day 21 (summary) [6, 15]: significant reduction or a decreasing trend | Total number of cells in BALF [7, 16]: 65.1±26.1 ×10^5 cells | Total number of cells in BALF [7, 17]: 124.4±127.3 ×10^4 cells | Total number of cells in BALF [7, 18]: 76.0±35.0 ×10^5 cells | Total number of cells in BALF compared to the Vehicle group ([7]; any MN-001 treated groups): no significant differences | Lung hydroxyproline contents compared to the Vehicle group ([8]; MN-001 30 mg/kg group): significantly decreased | Lung hydroxyproline contents [8, 16]: 49.8±7.9 μg/left lung | Lung Hyp (lung hydroxyproline content) [8, 12]: 49.8 ± 7.9 µg/left lung | Lung hydroxyproline contents compared to the Vehicle group ([8]; MN-001 100 mg/kg group): significantly decreased | Lung hydroxyproline contents [8, 17]: 56.1±10.1 μg/left lung | Lung Hyp (lung hydroxyproline content) [8, 13]: 56.1 ± 10.1 µg/left lung | Lung hydroxyproline contents [8, 18]: 56.4±12.7 μg/left lung | Lung Hyp (lung hydroxyproline content) [8, 14]: 56.4 ± 12.7 µg/left lung | Lung hydroxyproline content compared to the Vehicle group ([8]; MN-001 300 mg/kg treatment): tended to decrease | Lung hydroxyproline content compared to the Vehicle group at day 21 (summary) [8, 15]: significant reduction or a decreasing trend
